Experimental data reported in patent US5510375A, “Coumarin derivatives as protease inhibitors and antiviral agents” (Warner-Lambert Company, priority 1993, dated 1996).

tested on: HIV-1iiib; test: Anti-HIV-1 activity in H9 cells (acute infection, reverse transcriptase assay); format: cell-based; settings: Human immunodeficiency virus 1, acute HIV-1iiib infection, multiplicity of infection 0.01, 4 and 7 days post infection, 0.2% DMSO, read-out: Therapeutic Concentration for 50% Protection of Cells
Method: Using the general methods of Pauwels et al., (J. Virol. Methods, 16: 171-185 (1987) and Mann et al. (AIDS Research and Human Retroviruses, 253-255 (1989)) anti-viral assays of acute HIV-1 infection were performed in the H9 cell line. Cultures were batch infected in 1 ml of RPM1 1640 media/10% fetal calf serum containing 10^7 cells and 10^5 infectious doses of HIV-1iiib for an effective multiplicity of infection of 0.01. After 2 hours of viral absorption, cells were washed once and plated in 96-well microtiter plates at a density of 10^4 cells per well. Test compounds were added to produce the desired concentration of drug and 0.2% DMSO in a final volume of 200 μl. Uninfected parallel cultures were maintained for XTT cytotoxicity assay at 7 days post infection. Cultures were tested for viral replication by reverse transcriptase assay at 4 and 7 days post infection.

EC50 | Compound
58000 nM | CCOC(=O)c1cccc(OCCCc2c(O)c3ccccc3oc2=O)c1 [Example 8, Ethyl 3-3-(4-hydroxy-2-oxo-2H-1-benzopyran-3-yl)propoxy!benzoate]
13000 nM | COc1ccccc1CCCCc1c(O)c2ccccc2oc1=O [Example 13, 4-Hydroxy-3-4-(2-methoxyphenyl)butyl!-2H-1-benzopyran-2-one]

target: T1, HIV-1 Protease (Human immunodeficiency virus type 1 group M subtype B, UniProt P04585); test: HIV Protease Inhibition (hydrolysis of undecapeptide Substrate III, HPLC); format: biochemical; settings: not given
T1 construct: purchased Bachem Bioscience Inc
Method: 1.0 mM dithiothreitol (DTT) was prepared fresh daily in 0.1% polyethylene glycol (mw 8000) 80 mM NaOAc, 160 mM NaCl, 1.0 mM EDTA, and brought to pH 4.7 with HCl.
The enzyme is obtained from Bachem Bioscience Inc. The undiluted enzyme is thawed from -80° C. and diluted 50-fold with DTT buffer. The solution is always kept at 0° C. on ice water and used in the experiment within 20 minutes after thawing.
Substrate III from Bachem Bioscience Inc. is the undecapeptide H-His-Lys-Ala-Arg-Val-Leu-p-Nitrophenylalanine-Glu-Ala-Norleucine-Ser-NH2 (>97% purity). A 200 μM stock solution in DTT buffer is prepared and stored on ice. Substrate solution is prepared fresh daily.
10 mM inhibitor (I) in dimethyl sulfoxide (DMSO) is diluted to 200 μM with DTT buffer. From the 200 μM stock solution is made a 10 μM stock solution with 2% DMSO in DTT buffer. The two inhibitor solutions are used to make final (I)=100, 50, 20, 10, 5, 0.5 and 0 μM with 2% DMSO in DTT buffer in each reaction well (total inhibitor volume of 50 μl).
To each reaction well is added 20 μl of substrate (final concentration of 40 μM), 50 μl of inhibitor (at a concentration such that final dilution will produce the test concentration) and 20 μl of DTT buffer. The reaction plate (96 wells) is incubated at 37° C. for at least 5 minutes.
10 μl of the diluted protease is added to the reaction well while the reaction plate is shaking. Once shaken for 10 seconds, the plate is returned to the heating block at 37° C. (Final reaction volume=100 μl)
The reaction is incubated for 5 minutes at 37° C. The reaction is stopped by placing the reaction plate on the shaker and adding 20 μl of 10% trifluoroacetic acid (TFA) and shaking for 10 seconds. The amount of proteolysis is then determined by separation of noncleaved substrate and two cleaved products with reverse-phase HPLC, while measuring absorbance at 220 nm to determine the relative peak areas of the three components. The relative peak areas are used to calculate % conversion to product as a function of inhibitor concentration. The data is plotted as % Control (the ratio of % conversion in the presence and absence of inhibitor×100) versus inhibitor concentration and fit with the equation Y=100/1+(X/IC50)^A, where IC50 is the inhibitor concentration at 50% inhibition and A is the slope of the inhibition curve.

Compound | IC50
O=c1oc2ccccc2c(O)c1CCCOc1cccc(Cl)c1 [Example 7, 3-3-(3-Chlorophenoxy)propyl!-4-hydroxy-2H-1-benzopyran-2-one] | 1300 nM
COc1ccc2c(O)c(CCCCc3ccccc3OC)c(=O)oc2c1 [Example 22, 4-Hydroxy-7-methoxy-3-4-(2-methoxyphenyl)butyl!-2H-1-benzopyran-2-one] | 1400 nM
N#Cc1cccc(OCCCc2c(O)c3ccccc3oc2=O)c1 [Example 37, 3-3-(3-Cyanophenoxy)propyl!-4-hydroxy-2H-1-benzopyran-2-one] | 600 nM
O=c1oc2ccccc2c(O)c1C(SC1CCCCC1)c1ccccc1 (stereo not drawn) [Example 42, 3-(Cyclohexylthio)phenylmethyl!-4-hydroxy-2H-1-benzopyran-2-one] | 400 nM

same assay, conditions: pH 4.7, 37° C., 40 μM substrate, 2% DMSO, 5 minutes; read-out: 50% Inhibition Concentration

IC50 | Compound
1900 nM | COc1ccc(OCCCc2c(O)c3ccccc3oc2=O)cc1 [Example 4, 4-Hydroxy-3-3-(4-methoxyphenoxy)propyl!-2H-1-bensopyran-2-one]
5000 nM | O=C(O)c1cccc(OCCCc2c(O)c3ccccc3oc2=O)c1 [Example 9, 3-3-(4-Hydroxy-2-oxo-2H-1-benzopyran-3-yl)propoxy!benzoic acid]
1200 nM | O=c1oc2ccccc2c(O)c1CCCOc1cccc(CO)c1 [Example 10, 4-Hydroxy-3-3-(3-hydroxymethylphenoxy)propyl!-2H-1-benzopyran-2-one]
1700 nM | COc1ccccc1CCCCc1c(O)c2ccccc2oc1=O [Example 13, 4-Hydroxy-3-4-(2-methoxyphenyl)butyl!-2H-1-benzopyran-2-one]
2800 nM | O=c1oc2ccccc2c(O)c1CCCCc1ccccc1O [Example 14, 4-Hydroxy-3-4-(2-hydroxyphenyl)butyl!-2H-1-benzopyran-2-one]
5000 nM | COc1ccccc1CCCCc1c(O)c2cccc(C)c2oc1=O [Example 23, 4-Hydroxy-3-4-(2-methoxyphenyl)butyl!-8-methyl-2H-1-benzopyran-2-one]
500 nM | COc1ccccc1CCCCc1c(O)c2ccc(O)cc2oc1=O [Example 43, 4,7-Dihydroxy-3-4-(2-methoxyphenyl)butyl!-2H-1-benzopyran-2-one]

same assay, conditions: read-out: 50% Inhibition Concentration

IC50 | Compound
500 nM | CCOC(=O)c1cccc(OCCCc2c(O)c3ccccc3oc2=O)c1 [Example 8, Ethyl 3-3-(4-hydroxy-2-oxo-2H-1-benzopyran-3-yl)propoxy!benzoate]

tested on: HIV; test: not given; settings: R. Nagorny et al., AIDS, 7: 129-130 (1993); cited from earlier work

Compound | inhibiting cell-free and cell-mediated HIV infection
CC(=O)CC(c1ccccc1)c1c(O)c2ccccc2oc1=O (stereo not drawn) [Warfarin, 3-(α-acetonylbenzyl)4-hydroxycoumarin] | inhibiting cell-free and cell-mediated HIV infection
